From patent US20220274911A1, “ARYLPROPIONIC ACID DERIVATIVE, PHARMACEUTICAL COMPOSITION AND PREPARATION METHOD AND APPLICATION THEREOF” (NANJING HERON PHARMACEUTICAL SCIENCE AND TECHNOLOGY CO., …, priority 2020, published 2022)

Columns and labels:
[1] = Metabolism of the compound in human plasma (hydrolysis to the active metabolite); type: in vitro ADME; conditions: in vitro human plasma; for Remaining Amount of the Prodrug Compound (%): 37° C., 200 rpm, time point of the tabulated value not stated (samples at 0, 15, 30, 60 and 120 min)
Experimental: (1) 40 mM pure acetonitrile stock solutions of Compound 1, Compound 7 and Compound a were prepared;
(2) the stock solution (25 μL) of Compound a was mixed with 1 mL of human plasma and vortexed for 30 s, a sample (200 μL) was added to 800 μL of acetonitrile to precipitate proteins and vortexed for 1 min, and then the reaction was stopped as a control of an active metabolite of loxoprofen; and 40 mM stock solutions of Compound 1 and Compound 7 were diluted 200 times as prodrug controls;
(4) the pure acetonitrile stock solution (100 μL) of each of Compound 1 and Compound 7 was mixed with 4 mL of human plasma, vortexed for 30 s, and oscillated at 200 rpm in an oscillating water bath heater with a constant temperature of 37° C.;
(5) samples (200 μL) were taken at different time points (0, 15, 30, 60 and 120 min) with three samples at each time point, added with 800 μL of acetonitrile to precipitate proteins and vortexed for 1 min, and then the reaction was stopped; and a blank plasma control was obtained in the same manner;
(6) the samples were centrifuged at 12000 rpm for 10 min at 4° C., the supernatant was taken and injected at a volume of 30 μL (through a filter membrane), and changes of a peak area were recorded;
(7) hydrolysis rates of Compound 1 and Compound 7 were observed and analyzed.

[2] = Solubility of the active metabolite of loxoprofen; type: physicochemical
[3] = Physicochemical stability of the active metabolite of loxoprofen; conditions: high temperature, high humidity, cold white fluorescent lamp and ultraviolet lamp

Row | SMILES | transformation into the active metabolite [1] | Remaining Amount of the Prodrug Compound (%) [1] | metabolic rate ([1]; compared with Compound 1) | solubility ([2]; in a slightly alkaline aqueous solution) | solubility ([2]; in pure water) | physicochemical stability [3]
1 | CC(=O)OC(C)OC(=O)[C@@H](C)c1ccc(C[C@H]2CCC[C@@H]2O)cc1 (some centres unmarked) [Compound 7] | rapidly transformed into the active metabolite | 21.41% ± 0.49% | slightly faster than that of Compound 1 without a significant difference |  |  | 
2 | C[C@H](C(=O)O)c1ccc(C[C@H]2CCC[C@@H]2O)cc1 [Compound a, (S)-2-(4-(((1R, 2S)-2-hydroxycyclopentyl)methyl)phenyl)propionic acid] |  |  |  | soluble | low solubility | poor physicochemical stability
3 | CCOC(=O)OC(C)OC(=O)[C@@H](C)c1ccc(C[C@H]2CCC[C@@H]2O)cc1 (some centres unmarked) [Compound 1] | rapidly transformed into the active metabolite | 35.41% ± 1.83% |  |  |  | 
